Results from article PMC5297809, “Design, Synthesis and Antifungal Activity Evaluation of New Thiazolin-4-ones as Potential Lanosterol 14α-Demethylase Inhibitors” (International Journal of Molecular Sciences, 2017).
≈ marks a conversion by molar mass, not a printed value. Read-outs that look alike come from different tables or passages of the source.

What was measured:
[1] = tested on: Candida albicans ATCC 10231; assay: cup-plate agar diffusion method, inhibition zone diameters; assay type: cell-based
[2] = tested on: Candida albicans ATCC 10231; assay: broth microdilution MIC/MFC; assay type: cell-based
[3] = tested on: Candida albicans ATCC 18804; assay: broth microdilution MIC/MFC; assay type: cell-based
Candida krusei ATCC 6258 = assay: broth microdilution MIC/MFC; assay type: cell-based; details: Pichia kudriavzevii, ATCC6258
[4] = tested on: Candida parapsilosis ATCC 22019; assay: broth microdilution MIC/MFC; assay type: cell-based; details: Lodderomyces parapsilosis, ATCC22019
[5] = lipophilicity by RP-TLC with PCA; assay type: physicochemical; parameters: key to P1 / P2: PCA scores of compounds computed from Rf data; details: for RM0: RP-TLC C18, water-i-propanol 45-65%, intercept, RM extrapolated to 0% organic modifier (lipophilicity); for b: RP-TLC regression slope (specific hydrophobic surface area); for P1: score of first principal component of Rf data, low P1 = highly lipophilic; for P2: score of second principal component of Rf data
Description: The lipophilic character of twenty thiazolin-4-one derivatives was assessed with the help of the principal component analysis (PCA) based on the reversed-phase thin-layer chromatography (RP-TLC) data.
The chromatographic behavior of the test compounds was studied on C18 silicagel bonded 60 RP-180F254S TLC (20 × 20 cm) plates, purchased from Merck (Darmstadt, Germany). The test compounds’ solutions (1 mg/mL) were prepared by dissolving the samples in DMSO (Merck, Darmstadt, Germany). The plates were manually spotted with 3 µL aliquots of each solution at 10 mm from the base and 5 mm from the edge of the plate, leaving a 10 mm distance between successive spots, and developed by the ascending technique, without preconditioning. Chromatography was performed in a normal developing chamber at room temperature (~24 °C), the developing distance being of 9 cm. The solvent system used as mobile phase consisted of a water-i-propanol mixture, with a varying content of organic modifier (i-propanol—concentration ranged between 45% and 65% (v/v), with 5% vol. increments). Before the development, the chamber was saturated with the mobile phase for 15 min. After being developed, the dried plates were visually inspected under the UV light (λ = 254 nm), each spot was clearly marked and its distance was manually measured in order to calculate the Rf values. The spots of the compounds 3f, 10 and 11 were not visible in UV light, thus their Rf values could not be calculated, therefore they were excluded from this assay.
Based on the Rf values, one of the most common lipophilic estimator, meaning the isocratic retention factor RM was calculated using the Bate-Smith and Westall equations [40].
RP-TLC provides retention data in the form of Rf and the corresponding RM values (Equation (2)) that can be used to derive chromatographic descriptors for estimating lipophilicity: RM0, b and PCA. The most popular lipophilicity descriptor estimated by this method is RM and it is derived from the retention factor (Rf) according to the following formula: RM = log[(1/Rf) − 1] (2) where Rf is calculated on the basis of migration distance of a compound and the solvent front.
As RM value (related to the molecular lipophilicity) depends linearly on the concentration of the organic modifier in the mobile phase, the value is extrapolated to pure water as mobile phase. In order to increase the accuracy of the lipophilicity determination, the RM values extrapolated to zero organic modifier concentration (RM0) have been calculated from the linear correlation between the RM values and the concentration of the organic component of the mobile phase: RM = RM0 + bc (3) where RM0 is the lipophilicity estimation parameter, RM is the retention of the solute, b is the slope, and c is the concentration of the mobile phase organic modifier (i-propanol).
The intercept (RM0) in Equation (3) represents the extrapolated RM values at 0% organic modifier.
PCA was performed on the obtained retention parameters with the help of XL-STAT extension. […] PCA gave the coordinates (scores) of the studied compounds and also the loadings of the variables (solvents) on the principal components.

[6] = ATCC10231, C. albicans ATCC 10231, 1 mg/mL in DMSO, 20 µg/well, mean of three ± SD, read-out: inhibition zone diameters
[7] = ATCC10231, C. albicans ATCC 10231, read-out: MFC
[8] = ATCC10231, C. albicans ATCC 10231, read-out: MIC
[9] = ATCC18804, C. albicans ATCC 18804, read-out: MFC
[10] = ATCC18804, C. albicans ATCC 18804, read-out: MIC
[11] = C. krusei ATCC 6258, read-out: MFC
[12] = C. krusei ATCC 6258, read-out: MIC
[13] = C. parapsilosis ATCC 22019, read-out: MFC
[14] = C. parapsilosis ATCC 22019, read-out: MIC

| Structure (SMILES) | zone of inhibition at 1000 µg/mL [1, 6] | MFC [2, 7] | MIC [2, 8] | MFC [3, 9] | MIC [3, 10] | MFC (Candida krusei ATCC 6258; [11]) | MIC (Candida krusei ATCC 6258; [12]) | MFC [4, 13] | MIC [4, 14] | RM0 [5] | b [5] | P1 [5] | P2 [5] | melting point | other results |
| --- | --- | --- | --- | --- | --- | --- | --- | --- | --- | --- | --- | --- | --- | --- | --- |
| C=CCNC1=NC(=O)CS1 [Compound 2, 2-(allylamino)thiazol-4(5H)-one] | 20 ± 0.2 mm | 0.24 µg/mL (≈ 1.54 µM) | 0.12 µg/mL (≈ 0.768 µM) | 0.48 µg/mL (≈ 3.07 µM) | 0.24 µg/mL (≈ 1.54 µM) | 0.48 µg/mL (≈ 3.07 µM) | 0.24 µg/mL (≈ 1.54 µM) | 0.24 µg/mL (≈ 1.54 µM) | 0.12 µg/mL (≈ 0.768 µM) | 0.0414 | −1.1059 | 4.335 | 0.879 | 90 to 91 °C | – |
| C=CCNC1=NC(=O)C(=Cc2cccc(Cl)c2)S1 [Compound 3a, 2-(Allylamino)-5-(3-chlorobenzylidene)thiazol-4(5H)-one] | 20 ± 0.5 mm | 31.2 µg/mL (≈ 112 µM) | 31.2 µg/mL (≈ 112 µM) | 31.2 µg/mL (≈ 112 µM) | 15.6 µg/mL (≈ 56 µM) | 31.2 µg/mL (≈ 112 µM) | 15.6 µg/mL (≈ 56 µM) | 15.6 µg/mL (≈ 56 µM) | 7.81 µg/mL (≈ 28 µM) | 2.0801 | −3.6152 | −0.090 | −0.268 | 198 °C | – |
| C=CCNC1=NC(=O)C(=Cc2ccc(Cl)cc2Cl)S1 [Compound 3b, 2-(Allylamino)-5-(2,4-dichlorobenzylidene)thiazol-4(5H)-one] | 20 ± 0.5 mm | 31.2 µg/mL (≈ 99.8 µM) | 31.2 µg/mL (≈ 99.8 µM) | 15.6 µg/mL (≈ 49.9 µM) | 15.6 µg/mL (≈ 49.9 µM) | 31.2 µg/mL (≈ 99.8 µM) | 15.6 µg/mL (≈ 49.9 µM) | 15.6 µg/mL (≈ 49.9 µM) | 7.81 µg/mL (≈ 24.9 µM) | 2.2398 | −3.6102 | −1.263 | −0.062 | 238 °C | – |
| C=CCNC1=NC(=O)C(=Cc2ccc([N+](=O)[O-])cc2)S1 [Compound 3c, 2-(Allylamino)-5-(4-nitrobenzylidene)thiazol-4(5H)-one] | 18 ± 1 mm | 31.2 µg/mL (≈ 108 µM) | 31.2 µg/mL (≈ 108 µM) | 31.2 µg/mL (≈ 108 µM) | 31.2 µg/mL (≈ 108 µM) | 15.6 µg/mL (≈ 54 µM) | 15.6 µg/mL (≈ 54 µM) | 31.2 µg/mL (≈ 108 µM) | 15.6 µg/mL (≈ 54 µM) | 1.7553 | −3.314 | 1.049 | −0.259 | 265 °C | – |
| C=CCNC1=NC(=O)C(=Cc2csc(-c3ccccc3)n2)S1 [Compound 3d, 2-(Allylamino)-5-((2-phenylthiazol-4-yl)methylene)thiazol-4(5H)-one] | 20 ± 0.2 mm | 62.5 µg/mL (≈ 191 µM) | 31.2 µg/mL (≈ 95.4 µM) | 62.5 µg/mL (≈ 191 µM) | 31.2 µg/mL (≈ 95.4 µM) | 31.2 µg/mL (≈ 95.4 µM) | 15.6 µg/mL (≈ 47.7 µM) | 15.6 µg/mL (≈ 47.7 µM) | 7.81 µg/mL (≈ 23.9 µM) | 2.2119 | −3.7366 | −0.549 | −0.241 | 339 °C | – |
| C=CCNC1=NC(=O)C(=Cc2coc3ccc(Cl)cc3c2=O)S1 [Compound 3e, 2-(Allylamino)-5-((6-chloro-4-oxo-4H-chromen-3-yl)methylene)thiazol-4(5H)-one] | 20 ± 0.5 mm | 62.5 µg/mL (≈ 180 µM) | 31.2 µg/mL (≈ 90.1 µM) | 31.2 µg/mL (≈ 90.1 µM) | 15.6 µg/mL (≈ 45 µM) | 31.2 µg/mL (≈ 90.1 µM) | 15.6 µg/mL (≈ 45 µM) | 15.6 µg/mL (≈ 45 µM) | 7.81 µg/mL (≈ 22.5 µM) | 2.2869 | −3.9184 | −0.349 | −0.354 | 299 to 301 °C | – |
| C=CCNC1=NC(=O)C(=Cc2cccc(Br)c2)S1 [Compound 3f, 2-(Allylamino)-5-(3-bromobenzylidene)thiazol-4(5H)-one] | 22 ± 0.2 mm | 3.9 µg/mL (≈ 12.1 µM) | 1.95 µg/mL (≈ 6.03 µM) | 15.6 µg/mL (≈ 48.3 µM) | 7.81 µg/mL (≈ 24.2 µM) | 7.81 µg/mL (≈ 24.2 µM) | 3.9 µg/mL (≈ 12.1 µM) | 3.9 µg/mL (≈ 12.1 µM) | 1.95 µg/mL (≈ 6.03 µM) | – | – | – | – | 330 °C | – |
| O=C1CSC(Nc2ccccc2)=N1 [Compound 5, 2-(phenylamino)thiazol-4(5H)-one] | – | – | – | – | – | – | – | – | – | 0.9459 | −2.2931 | 2.796 | 0.238 | – | zone of inhibition at 1000 µg/mL ([1]; ATCC10231, read-out: inhibition zone diameters): 22 ± 0.5 mm; MFC ([2]; ATCC10231): 0.48 µg/mL (≈ 2.5 µM); MIC ([2]; ATCC10231): 0.24 µg/mL (≈ 1.25 µM); MFC ([3]; ATCC18804): 0.24 µg/mL (≈ 1.25 µM); MIC ([3]; ATCC18804): 0.12 µg/mL (≈ 0.624 µM); MFC (Candida krusei ATCC 6258): 0.12 µg/mL (≈ 0.624 µM); MIC (Candida krusei ATCC 6258): 0.06 µg/mL (≈ 0.312 µM); MFC [4]: 0.12 µg/mL (≈ 0.624 µM); MIC [4]: 0.06 µg/mL (≈ 0.312 µM) |
| O=C1CSC(Nc2cccc3ccccc23)=N1 [Compound 8, 2-(naphthalen-1-ylamino)thiazol-4(5H)-one] | 24 ± 1 mm | 0.24 µg/mL (≈ 0.99 µM) | 0.12 µg/mL (≈ 0.495 µM) | 0.24 µg/mL (≈ 0.99 µM) | 0.12 µg/mL (≈ 0.495 µM) | 0.12 µg/mL (≈ 0.495 µM) | 0.06 µg/mL (≈ 0.248 µM) | 0.12 µg/mL (≈ 0.495 µM) | 0.03 µg/mL (≈ 0.124 µM) | 1.6225 | −3.0931 | 1.125 | −0.163 | – | – |
| O=C1CSC(c2ccccc2)=N1 [Compound 11, 2-phenylthiazol-4(5H)-one] | 18 ± 1 mm | 0.48 µg/mL (≈ 2.71 µM) | 0.24 µg/mL (≈ 1.35 µM) | 0.24 µg/mL (≈ 1.35 µM) | 0.12 µg/mL (≈ 0.677 µM) | 0.48 µg/mL (≈ 2.71 µM) | 0.12 µg/mL (≈ 0.677 µM) | 0.12 µg/mL (≈ 0.677 µM) | 0.06 µg/mL (≈ 0.339 µM) | – | – | – | – | – | – |
